In US6500864B1, “Disulfide derivatives useful for treating allergic diseases” (Alcon Universal Ltd., priority 2000, dated 2002):

Test system: human conjunctival tissue mast cells
Experiment: Inhibition of anti-human IgE induced histamine release from human conjunctival tissue mast cells (HCTMC), histamine by RIA
Type: cell-based
Conditions: Mast cell, bracketed value, equals the mean of the four single determinations in the same cell, read-out: IC50 (nM), value in square brackets
Description: Methods detailing preparation of monodispersed HCTMC and mediator release studies with these cells have been described (U.S. Pat. No. 5,360,720 and Miller et al, Ocular Immunology and Inflammation, 4(1):39-49 (1996)). Briefly, human conjunctival tissue mast cells were isolated from post-mortem tissue donors obtained within 8 hours of death by various eye banks and transported in Dexsol® corneal preservation medium, or equivalent. Tissues were enzymatically digested by repeated exposure (30 min. at 37° C.) to collagenase and hyaluronidase (2× with 200 U each/gram tissue, then 2-4× with 2000 U each/gram tissue) in Tyrode's buffer containing 0.1% gelatin. (Tyrode's buffer (in mM): 137 NaCl, 2.7 KCl, 0.35 NaH2PO4, 1.8 CaCl2, 0.98 MgCl2, 11.9 NaHCO3, and 5.5 glucose). […]
Cells were harvested from the culture plate and counted for viability (trypan blue exclusion) and mast cell number (toluidine blue O). […] Supernatants were stored at −20° C. until analyzed for histamine content by RIA (Beckman Coulter, Chicago, Ill.). […]
Inhibition of histamine release was determined by direct comparison of with anti-IgE challenged mast cells using Dunnett's t-test (Dunnett, “A multiple comparison procedure for comparing treatments with a control”, J. Amer. Stat. Assoc. (1955), 50:1096-1121).

C=CCNC(=O)Nc1ccccc1SSc1ccccc1NC(=O)NCC=C [Compound 1]
IC50: 194 nM
